The values that follow come from patent US20110098296A1, “Thiazole And Oxazole Kinase Inhibitors” (priority 2007, published 2011).

The target in assay [1] is T1, EGFR (Homo sapiens, UniProt P00533).
T1 construct: made in house; host or cells: baculovirus expression system
Kind of assay: EGFR substrate phosphorylation assay (HTRF). In kind it is biochemical. Conditions: Method (A): Enzyme Mix incubated with compound at 20° C. for 1 hr, reaction started by adding Substrate Mix. The method in brief: (§1)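 Baculovirus-expressed kinase (0.8 nM EGFR or 10 nM ErbB2 in enzyme mix) with Peptide C 0.8 μM and ATP 20 μM (substrate-mix levels), MOPS pH 7.5, MnCl2; 90 min, 20 °C, HTRF anti-phosphotyrosine. Method A adds 1 h enzyme–compound preincubation; B none. pIC50, final compound 0.00027–47.6 μM.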
For orientation: Time-resolved FRET reads energy transfer from a long-lived donor to a nearby acceptor.

For assay [2], the system named is HT-29 tumor cells. Kind of assay: Method C: Cell Growth Inhibition Assay (CellTiter-Glo), HT-29. The conditions noted are these: Homo sapiens, HT-29, 72 h, 3 days, 4-parameter fit. It is filed as cell-based. How it is done: (§2) Human breast tumor cells (BT474) were cultured in RPMI (Mediatech 50-011-PB), containing 10% FBS (JRH Biosciences 12176) and 1% penicillin-streptomycin (Invitrogen 15140). Human head and neck tumor cells (HN5) were cultured in high glucose DMEM (Mediatech 50-013-PB) containing 10% FBS and 1% penicillin-streptomycin. Human colon tumor cells (Colo205) were cultured in RPMI (Mediatech 50-020-PB) containing 10% FBS and 1% penicillin-streptomycin. Human melanoma cancer cells (SK-MEL-28) were cultured in EMEM with nonessential amino acids (Mediatech 50-011-PB) containing 10% FBS, 1% sodium pyruvate (JT Baker 3354-04), and 1% penicillin-streptomycin. Human melanoma cancer cells (A375P F11s) were cultured in RPMI (Mediatech 50-020-PB) containing 10% FBS, 1% sodium pyruvate, and 1% penicillin-streptomycin. Human colon cancer cells (HT-29) were cultured in high glucose DMEM (Mediatech 50-013-PB) containing 10% FBS and 1% penicillin-streptomycin. Human melanoma cancer cells (SK-MEL-3) were cultured in McCoy's 5A (50-025-PB) containing 15% FBS, and 1% penicillin-streptomycin. All cell lines were maintained at 37° C. in a humidified 5% CO2, 95% air incubator. Cells were harvested using trypsin/EDTA (Invitrogen 25200), counted using an haemocytometer, and plated. For 96-well assays (using white full-area NUNC plates cat. #136102), cells were plated in 105 μL at the following densities (cells/well): HN5, 500; Colo205, 500; SK-MEL-28, 500; A375P-F11s, 500; HT-29, 500; SK-MEL-3, 500; and BT474, 3000. For 384-well assays (white full-area NUNC plates, cat. #781080), cells were plated in 48 μL at the following densities (cells/well): HN5, 500; Colo205, 500; SK-MEL-28, 500; A375P-F11s, 500; HT29, 500; SK-MEL-3, 500; and BT474, 2000.
(§3) The next day, compounds were diluted as follow: For 96-well assays, 13.5 μL of compound in DMSO were diluted using nine (9) serial 1:3 dilutions of 4.5 μL in 9 μL of DMSO. Medium (270 μl/well of RPMI with 10% FBS and 1% penicillin-streptomycin) was added to the plates. Aliquots (7 μl) were added to cells in the final assay giving a final DMSO concentration of 0.2%. For 384-well assays, 15 μL of compound in DMSO were diluted using nine (9) serial 1:3 dilutions of 5 μL in 10 μL of DMSO, followed by a further dilution of 5 μL of compound with 95 μL of medium, of which 2 μL were added to cells in the final assay giving a final DMSO concentration of 0.2%. Cells were incubated at 37° C., 5% CO2 for 3 days.
(§4) Total ATP was measured (as a surrogate estimate of cell number) using CellTiter-Glo® reagent (Promega G7571). Briefly, plates were removed from the incubator and allowed to equilibrate to room temperature for 30 minutes. CellTiter-Glo® (25 μL or 55 μL for 384-well or 96-well assays, respectively) reagent was added to each well and plates were shaken on an orbital plate shaker for 2 mins. Plates were incubated without shaking for a further 30 mins and read on an LJL Analyst GT reader in luminometer mode with an integration time of 0.5 seconds per well. Percent inhibition of cell growth was calculated relative to DMSO vehicle-treated control wells. Concentration of compound required to give 50% inhibition of vehicle-treated control cell growth (IC50) was interpolated using a 4-parameter fit for determining IC50 using the following equation: Y=A+((B−A)/(1+((C/X)̂D))) where X=IC50.
Background: Cellular ATP, detected with luciferase, serves as a proxy for viable cell number.

Assay [3] concerns SK-MEL-3 tumor cells. Kind of assay: Method C: Cell Growth Inhibition Assay (CellTiter-Glo), SK-MEL-3. Conditions: Homo sapiens, SK-MEL3, 72 h, 3 days, 4-parameter fit. In kind it is cell-based. How it is done: as §2, §3, §4
Assay [4] deals with Colo205 tumor cells. Kind of assay: Method C: Cell Growth Inhibition Assay (CellTiter-Glo), Colo205. It is filed as cell-based. Conditions: Homo sapiens, COLO 205, 72 h, 3 days, 4-parameter fit. The gist of the method:
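Plating at 500 cells/well is followed the next day by addition of compound as a 1:3 serial dilution series. After 3 days' incubation, CellTiter-Glo luminescence is read and IC50 is calculated versus DMSO wells.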

In assay [5] the test system is A375P F11s tumor cells. Kind of assay: Method C: Cell Growth Inhibition Assay (CellTiter-Glo), A375P F11s. In kind it is cell-based. The conditions noted are these: Homo sapiens, 72 h, 3 days, 4-parameter fit. How it is done:
as §2, §3, §4

Assay [6] has as its system HN5 tumor cells. Kind of assay: Method C: Cell Growth Inhibition Assay (CellTiter-Glo), HN5. It is filed as cell-based. Conditions: Homo sapiens, 72 h, 3 days, 4-parameter fit. How it is done:
as §2, §3, §4

The test system of assay [7] is BT474 tumor cells. Kind of assay: Method C: Cell Growth Inhibition Assay (CellTiter-Glo), BT474. In kind it is cell-based. Conditions: Homo sapiens, BT-474, 72 h, 3 days, 4-parameter fit.
In assay [8] the test system is SK-MEL-28 tumor cells. Kind of assay: Method C: Cell Growth Inhibition Assay (CellTiter-Glo), SK-MEL-28. It is filed as cell-based. Conditions: Homo sapiens, SK-MEL-28, 72 h, 3 days, 4-parameter fit. The gist of the method: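 500 cells/well; next-day compound, 1:3 serial dilutions, 0.2% DMSO final; 3 d, 37° C, 5% CO2. Readout: CellTiter-Glo luminescence (total ATP as cell-number surrogate). IC50 from 4-parameter fit of % growth inhibition vs vehicle.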

Assay [9] deals with T2, ErbB2 (Homo sapiens, UniProt P04626).
T2 construct: made in house; host or cells: baculovirus expression system
T2 sequence (P04626 23-1255): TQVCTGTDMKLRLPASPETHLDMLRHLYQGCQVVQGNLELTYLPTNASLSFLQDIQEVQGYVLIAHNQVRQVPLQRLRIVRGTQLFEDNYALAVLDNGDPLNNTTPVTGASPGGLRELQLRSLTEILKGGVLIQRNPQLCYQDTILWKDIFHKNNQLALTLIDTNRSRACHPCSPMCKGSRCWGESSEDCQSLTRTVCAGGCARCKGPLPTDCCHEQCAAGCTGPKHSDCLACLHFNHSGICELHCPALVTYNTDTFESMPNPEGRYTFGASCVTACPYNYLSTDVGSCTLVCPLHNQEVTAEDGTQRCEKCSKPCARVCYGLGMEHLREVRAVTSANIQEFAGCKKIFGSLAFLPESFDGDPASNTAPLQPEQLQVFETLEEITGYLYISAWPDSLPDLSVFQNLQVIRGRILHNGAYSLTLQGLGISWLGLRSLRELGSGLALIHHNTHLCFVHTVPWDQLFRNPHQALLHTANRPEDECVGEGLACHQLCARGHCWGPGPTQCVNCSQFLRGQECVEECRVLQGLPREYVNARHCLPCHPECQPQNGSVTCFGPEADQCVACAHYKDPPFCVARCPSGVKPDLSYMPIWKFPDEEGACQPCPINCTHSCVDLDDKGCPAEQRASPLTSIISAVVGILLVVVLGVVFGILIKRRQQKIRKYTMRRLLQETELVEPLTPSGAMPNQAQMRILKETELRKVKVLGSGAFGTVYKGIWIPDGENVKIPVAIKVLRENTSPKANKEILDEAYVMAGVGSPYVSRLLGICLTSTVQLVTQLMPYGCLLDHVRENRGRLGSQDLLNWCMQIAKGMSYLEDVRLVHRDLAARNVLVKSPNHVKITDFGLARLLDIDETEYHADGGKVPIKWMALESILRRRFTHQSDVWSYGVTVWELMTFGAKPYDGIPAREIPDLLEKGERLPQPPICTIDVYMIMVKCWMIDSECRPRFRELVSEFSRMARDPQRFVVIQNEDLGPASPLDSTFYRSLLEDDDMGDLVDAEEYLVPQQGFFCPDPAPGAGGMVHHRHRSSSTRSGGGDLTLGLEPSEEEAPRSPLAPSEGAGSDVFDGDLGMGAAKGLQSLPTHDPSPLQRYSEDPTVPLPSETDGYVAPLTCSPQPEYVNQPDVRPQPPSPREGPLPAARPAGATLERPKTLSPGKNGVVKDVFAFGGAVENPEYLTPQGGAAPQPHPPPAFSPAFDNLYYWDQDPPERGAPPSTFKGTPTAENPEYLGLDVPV
Kind of assay: ErbB-2 substrate phosphorylation assay (HTRF). It is filed as biochemical. Conditions: Method (A): Enzyme Mix incubated with compound at 20° C. for 1 hr, reaction started by adding Substrate Mix. The gist of the method: as §1

Where a name gives a salt, the structure may show the parent alone. A value given as a limit tells only on which side of the number the result lay.

T1 sequence (P00533 25-1210): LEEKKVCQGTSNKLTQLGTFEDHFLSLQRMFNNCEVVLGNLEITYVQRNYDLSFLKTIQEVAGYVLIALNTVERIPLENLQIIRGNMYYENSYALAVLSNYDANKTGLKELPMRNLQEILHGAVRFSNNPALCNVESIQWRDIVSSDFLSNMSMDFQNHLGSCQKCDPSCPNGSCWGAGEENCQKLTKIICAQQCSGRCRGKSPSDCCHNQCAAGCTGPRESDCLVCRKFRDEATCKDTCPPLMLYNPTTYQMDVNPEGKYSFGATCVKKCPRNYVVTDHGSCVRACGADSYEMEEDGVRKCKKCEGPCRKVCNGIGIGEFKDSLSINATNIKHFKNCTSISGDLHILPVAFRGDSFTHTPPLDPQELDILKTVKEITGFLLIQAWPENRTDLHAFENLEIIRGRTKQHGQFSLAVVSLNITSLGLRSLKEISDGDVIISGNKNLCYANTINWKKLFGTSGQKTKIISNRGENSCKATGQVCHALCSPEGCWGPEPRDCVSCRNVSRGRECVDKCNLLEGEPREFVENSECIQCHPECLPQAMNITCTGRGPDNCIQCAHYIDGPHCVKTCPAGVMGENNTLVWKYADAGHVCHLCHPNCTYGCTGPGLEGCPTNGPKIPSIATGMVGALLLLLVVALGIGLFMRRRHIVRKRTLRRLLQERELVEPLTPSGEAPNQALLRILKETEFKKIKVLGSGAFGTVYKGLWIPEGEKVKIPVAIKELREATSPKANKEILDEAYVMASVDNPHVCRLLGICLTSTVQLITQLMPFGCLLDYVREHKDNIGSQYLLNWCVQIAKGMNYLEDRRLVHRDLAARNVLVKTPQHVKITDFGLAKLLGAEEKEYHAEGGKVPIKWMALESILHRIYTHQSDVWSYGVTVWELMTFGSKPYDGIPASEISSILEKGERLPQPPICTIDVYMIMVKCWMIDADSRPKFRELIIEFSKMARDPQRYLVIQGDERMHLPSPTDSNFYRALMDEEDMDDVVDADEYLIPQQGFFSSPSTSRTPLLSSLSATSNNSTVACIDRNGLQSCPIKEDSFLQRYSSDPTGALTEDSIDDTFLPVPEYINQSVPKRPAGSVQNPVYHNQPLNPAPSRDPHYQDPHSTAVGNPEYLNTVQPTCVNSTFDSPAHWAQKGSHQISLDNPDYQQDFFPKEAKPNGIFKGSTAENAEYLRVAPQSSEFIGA

The term IC50 denotes the point on the concentration scale where inhibition reaches its midpoint. `Nc1nc(-c2cccc(NC(=O)c3c(F)cccc3F)c2)c(-c2ccnc(Nc3cccc(CN4CCCC4)c3)n2)s1` [Example 13, N-{3-[2-Amino-5-(2-{[3-(1-pyrrolidinylmethyl)phenyl]amino}-4-pyrimidinyl)-1,3-thiazol-4-yl]phenyl}-2,6-difluorobenzamide]: the IC50 in assay [1] is below 100 nM; in assay [2], 100 to 1000 nM; in assay [3], 100 to 1000 nM; in [4], 100 to 1000 nM; in assay [5], 100 to 1000 nM; in [6] it was below 100 nM. Moreover, the IC50 is below 100 nM in assay [7], above 1000 nM in [8] and below 100 nM in [9].
`CCN(CC)CCOc1cccc(Nc2nccc(-c3sc(N)nc3-c3cccc(NC(=O)c4c(F)cccc4F)c3)n2)c1` [Example 17, N-(3-{2-Amino-5-[2-({3-[2-(diethylamino)ethoxy]phenyl}amino)pyrimidiN-4-yl]-1,3-thiazol-4-yl}phenyl)-2,6-difluorobenzamide]: the IC50 in assay [1] is below 100 nM; in [2] it was 100 to 1000 nM; in assay [3], above 1000 nM; in assay [4], 100 to 1000 nM; in [5], 100 to 1000 nM; in [6], below 100 nM. Moreover, the IC50 in assay [7] is below 100 nM; in assay [8] it was above 1000 nM; in assay [9], below 100 nM.
For `CN(C)CCOc1cccc(Nc2nccc(-c3sc(N)nc3-c3cccc(NC(=O)c4c(F)cccc4F)c3)n2)c1` [Example 22, N-[3-(2-Amino-5-{2-[(3-{[2-(dimethylamino)ethyl]oxy}phenyl)amino]-4-pyrimidinyl}-1,3-thiazol-4-yl)phenyl]-2,6-difluorobenzamide], the IC50 was below 100 nM in [1]; 100 to 1000 nM in assay [2]; 100 to 1000 nM in assay [3]; 100 to 1000 nM in assay [4]; 100 to 1000 nM in assay [5]; below 100 nM in assay [6]. In addition, the IC50 is below 100 nM in assay [7], 100 to 1000 nM in assay [8] and below 100 nM in assay [9].
Consider `CNc1nc(-c2cccc(NC(=O)c3c(F)cccc3F)c2)c(-c2ccnc(Nc3cccc(CN4CCCC4)c3)n2)s1` [Example 23, 2,6-Difluoro-N-{3-[2-(methylamino)-5-(2-{[3-(1-pyrrolidinylmethyl)phenyl]amino}-4-pyrimidinyl)-1,3-thiazol-4-yl]phenyl}benzamide], for which the IC50 in [1] is below 100 nM; in assay [2], 100 to 1000 nM; in assay [3], 100 to 1000 nM; in [4], 100 to 1000 nM; in assay [5], 100 to 1000 nM; in [6], below 100 nM. Besides, the IC50 in [7] was below 100 nM; in assay [8], above 1000 nM; in [9] it was below 100 nM.
On to `CNc1nc(-c2cccc(NC(=O)c3c(F)cccc3F)c2)c(-c2ccnc(Nc3ccc(OCCN(C)C)c(Cl)c3)n2)s1` [Example 24, N-{3-[5-{2-[(3-Chloro-4-{[2-(dimethylamino)ethyl]oxy}phenyl)amino]-4-pyrimidinyl}-2-(methylamino)-1,3-thiazol-4-yl]phenyl}-2,6-difluorobenzamide], for which the concentration for half-maximal inhibition (IC50) is below 100 nM in assay [1]; 100 to 1000 nM in assay [2]; 100 to 1000 nM in [3]; 100 to 1000 nM in assay [4]; 100 to 1000 nM in [5]; below 100 nM in [6]. In addition, the IC50 in assay [7] was below 100 nM; in [8], 100 to 1000 nM; in assay [9] it was below 100 nM.
Regarding `CCNc1nc(-c2cccc(NC(=O)c3c(F)cccc3F)c2)c(-c2ccnc(Nc3ccc(OCCN(C)C)c(Cl)c3)n2)s1` [Example 25], the concentration for half-maximal inhibition (IC50) in assay [1] is below 100 nM; in [2], 100 to 1000 nM; in [3], 100 to 1000 nM; in assay [4] it was 100 to 1000 nM; in assay [5] it was 100 to 1000 nM; in [6], 100 to 1000 nM. Also, the IC50 in assay [7] was 100 to 1000 nM; in [8], 100 to 1000 nM; in assay [9], below 100 nM.
As for `CCNc1nc(-c2cccc(NC(=O)c3c(F)cccc3F)c2)c(-c2ccnc(Nc3ccc(CCN4CCCC4)c(F)c3)n2)s1` [Example 26, N-(3-{2-(Ethylamino)-5-[2-({3-fluoro-4-[2-(1-pyrrolidinyl)ethyl]phenyl}amino)-4-pyrimidinyl]-1,3-thiazol-4-yl}phenyl)-2,6-difluorobenzamide trifluoroacetate], the 50% inhibitory concentration (IC50) in assay [1] is below 100 nM; in assay [2], 100 to 1000 nM; in assay [3] it was 100 to 1000 nM; in assay [4], 100 to 1000 nM; in [5], 100 to 1000 nM; in [6], 100 to 1000 nM. For the same molecule, the IC50 in [7] is 100 to 1000 nM; in assay [8] it was 100 to 1000 nM; in assay [9] it was below 100 nM.
Take `COCCNc1nc(-c2cccc(NC(=O)c3c(F)cccc3F)c2)c(-c2ccnc(Nc3ccc(OCCN4CCCC4)c(Cl)c3)n2)s1` [Example 27, N-[3-(5-{2-[(3-Chloro-4-{[2-(1-pyrrolidinyl)ethyl]oxy}phenyl)amino]-4-pyrimidinyl}-2-{[2-(methyloxy)ethyl]amino}-1,3-thiazol-4-yl)phenyl]-2,6-difluorobenzamide]: the IC50 was below 100 nM in assay [1]; 100 to 1000 nM in assay [2]; 100 to 1000 nM in assay [3]; 100 to 1000 nM in assay [4]; 100 to 1000 nM in assay [5]; below 100 nM in assay [6]. Moreover, the IC50 in [7] is below 100 nM; in assay [8], 100 to 1000 nM; in assay [9], below 100 nM.
As to `O=C(Nc1cccc(-c2nc(NCCCN3CCOCC3)sc2-c2ccnc(Nc3cccc(CN4CCCC4)c3)n2)c1)c1c(F)cccc1F` [Example 28, 2,6-Difluoro-N-{3-[2-{[3-(4-morpholinyl)propyl]amino}-5-(2-{[3-(1-pyrrolidinylmethyl)phenyl]amino}-4-pyrimidinyl)-1,3-thiazol-4-yl]phenyl}benzamide], the IC50 in assay [1] was below 100 nM; in assay [2] it was 100 to 1000 nM; in assay [3], 100 to 1000 nM; in [4], 100 to 1000 nM; in assay [5], 100 to 1000 nM; in assay [6], 100 to 1000 nM. For the same molecule, the IC50 in assay [7] was below 100 nM; in assay [8], 100 to 1000 nM; in assay [9] it was below 100 nM.
